We go through 3 compounds from US10729664B2, “Permanently charged sodium and calcium channel blockers as anti-inflammatory agents” (Children's Medical Center Corporation, priority 2009, dated 2020).

The test system of one assay is rat hindpaw. Description: Edema elicited by injection of complete Freund's adjuvant (CFA) in the rat hindpaw, total hindpaw volume by plethysmography. Conditions: intravenous QX-314 0.4 mg/kg. Format: in vivo. The protocol:
FIG. 1 is a graph showing the effect of intravenous QX-314 (0.4 mg/kg) on the edema elicited by injection of complete Freund's adjuvant (CFA) in the rat hindpaw determined by measuring the total volume of the hindpaw by plethysmography. The degree of swelling produced by injection of CFA is reduced by administration of QX-314 reflecting reduction in neurogenic edema resulting from the blockade of nociceptors by QX314.

Assay [1] relates to voltage-dependent calcium channels. Description: Whole-cell recording of currents through voltage-activated calcium channels in a dissociated dorsal root ganglion neuron. Format: cell-based, rat. The protocol:
The traces show currents through voltage-activated calcium channels in a dissociated rat dorsal root ganglion neuron, recorded in whole-cell mode. Current was carried by 2 mM Ba^2+ on a background of 155 mM N-methyl-D-glucamine (to eliminate Na current), with an internal CsCl-based solution. Calcium channels were opened by a voltage step from −80 mV to −20 mV. When channels are opened, inward-going current is carried by Ba^2+ ions flowing into the cell.

“Also recorded” adds a separate entry of the source.

As for `CC[N+](CC)(CC)CC(=O)Nc1c(C)cccc1C` [QX-314], the “degree of swelling produced by injection of CFA (total volume of the hindpaw)” value with rat hindpaw (CFA-injected hindpaw) is reported as “reduced”. Moreover, in the assay on rat hindpaw (by itself (no CFA), compared with saline), the “effect on hindpaw volume of QX-314 by itself” value is listed as “no effect different from administration of saline”.

Regarding `COc1ccc(CC[N+](C)(C)CCCC(C#N)(c2ccc(OC)c(OC)c2)C(C)C)cc1OC` (centres unmarked) [N-methyl-verapamil], the “effect on calcium channel currents, N-methyl-verapamil alone” value in assay [1] (300 μM N-methyl-verapamil alone, before and 3 minutes after exposure, step from −80 mV to −20 mV, 2 mM Ba2+) was “weak, transient effects”. Also, the “inhibition of voltage-dependent calcium channel current, N-methyl-verapamil applied in the presence of capsaicin” value in assay [1] (300 μM N-methyl-verapamil in the presence of 1 μM capsaicin to open TRPV1 channels, 3 minutes after exposure and after washout) is recorded as “long-lasting inhibition; also recorded: inhibition of calcium channel currents that persists after washout; also recorded: inhibition of voltage-dependent calcium channel current”.

Turning to `COc1cc(CNC(=O)CCCC/C=C/C(C)C)ccc1O` [capsaicin, reference compound], in assay [1] (1 μM capsaicin alone, before and 3 minutes after exposure, step from −80 mV to −20 mV, 2 mM Ba2+), the “effect on calcium channel currents, capsaicin alone” value is given as “weak, transient effects”.
